According to PubChem BioAssay (NCI):
Values joined by “and” are separate entries in the source; they are usually repeats but may differ in a detail not shown here. Equal entries are not always repeated.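 Each compound was tested at five concentrations against cells in 96-well plates for 48 hours. GI50 marks 50% less growth. Definition used: TGI = concentration required for complete inhibition of growth.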

How the values were obtained:
Experiment in all cases: NCI tumour cell line growth inhibition, 48 h
[1] = system: HCT-15 colon
[2] = system: HOP-92 NSCLC
[3] = system: CCRF-CEM leukemia
[4] = system: 786-0 renal
[5] = system: SW-620 colon
[6] = system: OVCAR-3 ovarian
[7] = system: HT29 colon
[8] = system: UO-31 renal
[9] = system: LOX IMVI melanoma
[10] = system: SNB-75 CNS

Structure (SMILES)	GI50 [1] [µM]	TGI [1]	GI50 [2] [µM]	TGI [2] [µM]	GI50 [3] [µM]	TGI [3]	GI50 [4] [µM]	TGI [4] [µM]	GI50 [5] [µM]	TGI [5] [µM]	GI50 [6]	TGI [6]	GI50 [7] [µM]	TGI [7] [µM]	GI50 [8] [µM]	TGI [8]	GI50 [9] [µM]	TGI [9]	GI50 [10]	TGI [10] [µM]
Cc1cc2c(cc1C)[n+](Cc1ccc3ccccc3n1)cn2Cc1ccc2ccccc2n1	3.04	11.4 µM	0.484	2	1.83	12.8 µM	1.54	3.03	1.07	2.92	0.628 µM	2.12 µM	0.331	1.63	1.33	2.84 µM	0.669	2 µM	1.43 µM	3.87
CN(C)c1ccc(/C=N/NC(=O)c2cccc3ccccc23)c(Cl)c1	0.727	> 100 µM	0.372	19.6	0.581	> 100 µM	5.87	> 100	0.578	> 100	0.865 µM	13.5 µM	0.503	15.8	14.6	> 100 µM	1.86	> 100 µM	1.57 µM	16.3
CC12CC(Sc3ccccc3N1)c1ccccc1O2 (stereo not given)		29.2 µM		35.2		36.5 µM		31.6		31.8		30.3 µM		35		27.4 µM		27 µM		53.3
CC12CCC(O)CC1=CCC1C2CCC2(C)C(c3cccnc3)=CCC12 (stereo not given)	> 100	> 100 µM	43	> 100	> 100	> 100 µM	50.4	> 100	> 100	> 100	> 100 µM	> 100 µM	82.2	> 100	> 100	> 100 µM	> 100	> 100 µM	48.5 µM	> 100
Cc1cc2c(=O)[nH]c(N)nc2nc1C		> 100 µM		> 100		> 100 µM		> 100		> 100		> 100 µM		> 100		> 100 µM		> 100 µM		> 100
C[C@@](O)(/C=C/[C@H]1CC=CC(=O)O1)[C@@H](C[C@@H](O)\C=C/C=C\C=C\CO)OP(=O)(O)O	11.4	55.9 µM and 79.4 µM		10.6	3.52	335 µM and 34.1 µM		20.2		70.9	12.1 µM and 2.94 µM	27.7 µM and 12.7 µM		6.33	9.39	19.5 µM and 22 µM	4.32	10.1 µM and 6.8 µM	315 µM and 39.4 µM	
